From US20130109620A1, “BALAGLITAZONE COMPOSITIONS AND METHODS” (RHEOSCIENCE A/S, priority 2009, published 2013)
Counter-ions that a name gives are not always drawn. Like-named read-outs stand apart in the source and are kept apart here.

Legend:
[1] = test system: T2D patients on stable insulin therapy; experiment: 26-week clinical study: glycemic control (HbA1c, FSG, 7-point glucose, serum insulin, insulin dose); type: in vivo, human; conditions: for HbA1c level decrease compared to placebo / post-prandial glucose reduction (7-point glucose test) compared to placebo / fasting serum glucose (FSG) reduction compared to placebo: 26 weeks
Excerpt: Subjects were required to meet the following criteria to be included in the study: type 2 diabetes mellitus being diagnosed at least three months earlier according to the 1999 World Health Organisation criteria; age ≧18 years; body mass index (“BMI”)≧25 kg/m^2; HbA1c≧7%; and treatment with insulin on a stable dose of at least 30 U/day (±4 U/day), for at least 75 days, although insulin adjustments to resolve short term acute disease were permitted. […] All tablets were contained in an identical capsule. Subjects, study-site personnel, and sponsors were all blinded. One screening visit was conducted four weeks before randomization, and at week zero, subjects meeting the inclusion and exclusion criteria were assessed for safety. Subjects visited the clinics at the screening visit, at baseline, and at weeks 4, 8, 12, 16, 20 and 26. At each visit, fasting blood samples were collected for analysis of glycemic control, lipids, and clinical chemistry. All laboratory analyses were performed by a central laboratory. Subjects were instructed to keep their usual diet. They were supplied with a plasma glucose meter and instructed regarding how to obtain 7-point plasma glucose profiles. The values of the 7-point measurement performed within the last week before visits 2, 3, 4, 5, 6, 7 and 8 were included in the study. The 7-point plasma glucose profile consisted of glucose levels before each meal (breakfast, lunch, and dinner), 90 minutes after the start of each of those meals, and at bedtime.

[2] = 26-week clinical study: body weight; type: in vivo, human; conditions: 26 weeks, p<0.0001
Excerpt: (§1) All tablets were contained in an identical capsule. Subjects, study-site personnel, and sponsors were all blinded.

[3] = test system: T2D patients on stable insulin therapy; experiment: 26-week clinical study: lower leg volume by volume of water displacement (VWD); type: in vivo, human; conditions: 26 weeks
Experimental: as §1
Lower leg volume of both legs was determined using the volume of water displacement (“VWD”) method at visits 2 and 8, using Partial Leg Baseline Volumetric Edema Gauges (26).

[4] = test system: T2D patients on stable insulin therapy; experiment: 26-week clinical study: body composition and total body BMD by DXA; type: in vivo, human; conditions: 26 weeks
Experimental: All tablets were contained in an identical capsule. Subjects, study-site personnel, and sponsors were all blinded. Body composition was measured by Dual Energy X-ray Absorptiometry (“DXA”) on visits 2 and 8, in which total body lean (“LTM”), fat tissue mass (“FTM”), and bone mineral density (“BMD”) were measured. Subjects were instructed to fast, beginning at 10 PM the night before body composition measurements. […] The scans were conducted using Lunar DPX (GE Healthcare Worldwide), Hologic™ (Hologic™, Hologic (UK) Limited, UK), or Norland (Norland Medical Systems, Inc.) whole body scanners, and each individual was scanned with the same scanner at both visits.

[5] = test system: T2D patients on stable insulin therapy; experiment: 26-week clinical study: serum biochemistry (ALP, lipids, NT-proBNP); type: in vivo, human; conditions: 26 weeks
Experimental: All tablets were contained in an identical capsule. Subjects, study-site personnel, and sponsors were all blinded. One screening visit was conducted four weeks before randomization, and at week zero, subjects meeting the inclusion and exclusion criteria were assessed for safety. Subjects visited the clinics at the screening visit, at baseline, and at weeks 4, 8, 12, 16, 20 and 26. At each visit, fasting blood samples were collected for analysis of glycemic control, lipids, and clinical chemistry. All laboratory analyses were performed by a central laboratory.

[6] = test system: T2D patients on stable insulin therapy; experiment: 26-week clinical study: systolic and diastolic blood pressure; type: in vivo, human; conditions: 26 weeks, placebo −1.7
Excerpt: as §1
Any abnormalities were registered.

[7] = subjects on stable insulin therapy, 24-week period, reference (28), cited from earlier work
[8] = test system: T2D patients on stable insulin therapy; experiment: 26-week clinical study: adverse events and tolerability; conditions: for subjects with AEs of special interest (strain on the heart or bone fractures): placebo 12%; for subjects who withdrew due to an AE: placebo 15%
[9] = pioglitazone 45 mg once daily, p<0.0001
[10] = balaglitazone 10 mg once daily, p<0.01
[11] = balaglitazone 20 mg once daily, p<0.0001

CCc1ccc(CCOc2ccc(CC3SC(=O)NC3=O)cc2)nc1 (racemic) [pioglitazone, [(±)-5-[[4-[2-(5-ethyl-2-pyridinyl)ethoxy]phenyl]methyl]-2,4-]thiazolidinedione monohydrochloride, reference compound]
HbA1c level decrease compared to placebo [1, 9]: −1.22%
post-prandial glucose reduction (7-point glucose test) compared to placebo [1, 9]: -2.6 mmol/L
fasting serum glucose (FSG) reduction compared to placebo ([1]; pioglitazone 45 mg once daily, p<0.05): -1.4 mmol/L
body weight increase compared to placebo ([2]; pioglitazone 45 mg once daily): 4.5 kg
lower leg volume (VWD) compared with placebo ([3]; pioglitazone 45 mg once daily): significantly increased lower leg volume
total body bone mineral density (TB-BMD) compared with placebo ([4]; pioglitazone 45 mg once daily, no significant change): trend toward loss of bone
serum NT-proBNP compared to placebo ([5]; pioglitazone 45 mg once daily): significant increase
systolic blood pressure reduction ([6]; pioglitazone 45 mg once daily, SE 0.9): −3.0 mmHg
diastolic blood pressure reduction ([6]; pioglitazone 45 mg once daily, SE 1.5): −3.9 mmHg
weight increase ([7]; pioglitazone 30 mg): 2.9 kg
weight increase ([7]; pioglitazone 45 mg): 3.4 kg
influenza, total number of events ([8]; pioglitazone 45 mg group): 10
number of heart failures ([8]; pioglitazone 45 mg group): 3
subjects reporting adverse events ([8]; pioglitazone 45 mg group, out of 102 subjects): 75 subjects
subjects reporting influenza ([8]; pioglitazone 45 mg group, placebo 3%): 9%
subjects reporting nasopharyngitis ([8]; pioglitazone 45 mg group, placebo 10%): 3%
subjects with AEs of special interest (strain on the heart or bone fractures) ([8]; pioglitazone 45 mg group): 25%
subjects who withdrew due to an AE ([8]; pioglitazone 45 mg group): 8%

Cn1c(COc2ccc(CC3SC(=O)NC3=O)cc2)nc2ccccc2c1=O (stereo not shown) [balaglitazone, 5[4-(3-methyl-4-oxo-3,4-dihydroquinazolin-2-ylmethoxy)-benzyl]-thiazolidine-2,4-dione]
glucose-lowering capabilities compared to pioglitazone 45 mg ([1]; balaglitazone 10 mg dose): equipotent
HbA1c level decrease compared to placebo ([1]; balaglitazone 10 mg once daily, p<0.0001): −0.99%
post-prandial glucose reduction (7-point glucose test) compared to placebo [1, 10]: -1.6 mmol/L
fasting serum glucose (FSG) reduction compared to placebo ([1]; balaglitazone 10 mg once daily, p=0.01): -1.4 mmol/L
HbA1c level decrease compared to placebo [1, 11]: −1.11%
post-prandial glucose reduction (7-point glucose test) compared to placebo [1, 11]: -2.5 mmol/L
fasting serum glucose (FSG) reduction compared to placebo ([1]; balaglitazone 20 mg once daily, p<0.001): -1.8 mmol/L
body weight increase compared to placebo ([2]; balaglitazone 10 mg once daily): 3.1 kg
body weight increase compared to placebo ([2]; balaglitazone 20 mg once daily): 4.7 kg
lower leg volume (VWD) compared with placebo ([3]; balaglitazone 10 mg once daily): no significant increase in leg volume
lower leg volume (VWD) compared with placebo ([3]; balaglitazone 20 mg once daily): significantly increased lower leg volume
total body bone mineral density (TB-BMD) compared to placebo ([4]; balaglitazone 10 mg and 20 mg groups): neither of the balaglitazone groups showed any indication of bone loss
whole body fat accumulation compared to pioglitazone 45 mg ([4]; balaglitazone 10 mg once daily): trend toward lower fat accumulation
fat mass gain in the legs compared to the pioglitazone group [4, 10]: significantly less fat mass
LDL cholesterol levels and total cholesterol ([5]; balaglitazone 10 mg and 20 mg): neither LDL cholesterol levels nor total cholesterol changed
HDL cholesterol levels compared to placebo ([5]; balaglitazone 10 mg and 20 mg, p<0.001 for both groups): significantly increased
reduction in serum ALP compared to the pioglitazone 45 mg group ([5]; balaglitazone 10 mg once daily): significantly smaller
serum NT-proBNP compared to placebo ([5]; balaglitazone 10 mg once daily): only a trend was observed
serum NT-proBNP compared to placebo ([5]; balaglitazone 20 mg once daily): significant increase
increase in NT-proBNP compared to the pioglitazone 45 mg group ([5]; balaglitazone 20 mg once daily, p<0.01): significantly larger
diastolic blood pressure reduction ([6]; balaglitazone 10 mg once daily, SE 0.9): −1.8 mmHg
diastolic blood pressure reduction ([6]; balaglitazone 20 mg once daily, SE 1.0): −2.2 mmHg
tolerability throughout the study ([8]; balaglitazone 10 mg and 20 mg, 26 weeks): well-tolerated
heart failure, peripheral oedema and myocardial infarction compared to the remaining groups ([8]; balaglitazone 10 mg group): numerically lower
number of heart failures ([8]; balaglitazone 10 mg group): 0
percentage of serious adverse events ([8]; balaglitazone 10 mg group): 6%
subjects reporting adverse events ([8]; balaglitazone 10 mg group, out of 99 subjects): 81 subjects
subjects with AEs of special interest (strain on the heart or bone fractures) ([8]; balaglitazone 10 mg group): 10%
subjects who withdrew due to an AE ([8]; balaglitazone 10 mg group): 16%
percentage of serious adverse events ([8]; balaglitazone 20 mg group): 11%
subjects reporting adverse events ([8]; balaglitazone 20 mg group, out of 99 subjects): 77 subjects
subjects with AEs of special interest (strain on the heart or bone fractures) ([8]; balaglitazone 20 mg group): 19%
subjects who withdrew due to an AE ([8]; balaglitazone 20 mg group): 17%
number of fractures observed ([8]; balaglitazone 20 mg group, the only fracture in the study): one
